{
  "source": "patent US5446157A",
  "about": "“Boron difluoride compounds useful in photodynamic therapy and production of laser light” (priority 1993, dated 1995)",
  "key": {"breast tumors": {"test_system": "breast tumors", "test": "Photodynamic therapy of DMBA-induced breast tumors, intratumor injection (Table VIII)", "type": "in vivo, female Sprague Dawley rats", "settings": "for COMPLETE RESPONSE (ANIMALS) / FINAL TOTAL TUMOR NO. / FINAL MEAN TUMOR VOLUME: four weeks", "experimental": "Breast tumors were induced in fifty-day-old female Sprague Dawley rats by the oral feeding of dimethylbenzanthracene (DMBA) in peanut oil. Individual rats were fed 10 mg DMBA per 100 g body weight via gavage tubes. Palpable tumors developed 45 to 92 days after feeding. […] Following tumor development, tumors were measured and injected with PMPDS-BF2 dissolved in saline ([…] was injected into the center of the tumors to a concentration of 20 μg/cm^3 of tumor volume. Twenty-four hours after intratumor injection, the rats were anesthetized using phenobarbital (2 mg/kg i.p.) and the injected tumors were exposed to light from either a quartz lamp (100 or 250 w) or an argon laser (with 488/514 and 628 nm frequencies) for 10-20 minutes. Also included in this experiment were three control groups: (1) saline injected, unirradiated tumors; (2) saline injected, irradiated tumors; (3) PMPDS-BF2 injected, and unirradiated tumors."}, "[1]": {"test": "Laser characteristics of pyrromethene-BF2 complexes under flashlamp excitation (Table IV)", "settings": "DMA/MeOH"}},
  "note": "Counter-ions that a name gives are not always drawn.",
  "data": [
    {"smiles": "CC1=C(S(=O)(=O)O)C(C)=[N+]2C1=C(C)c1c(C)c(S(=O)(=O)O)c(C)n1[B-]2(F)F", "note": "[PMPDS-BF2, Disodium salt of 4,4-difluoro-1,3,5,7,8-pentamethyl-4-bora-3a,4a-diaza-s-indacene-2,6-disulfonic acid monohydrate]", "values": [
      {"measurement": "COMPLETE RESPONSE (ANIMALS)", "setting": "breast tumors; 20 ug/cm^3, no light", "result": "2/10"},
      {"measurement": "FINAL TOTAL TUMOR NO.", "setting": "breast tumors; 20 ug/cm^3, no light, initial 12", "result": 13},
      {"measurement": "FINAL MEAN TUMOR VOLUME", "setting": "breast tumors; 20 ug/cm^3 intratumor plus light (quartz lamp 100 watt, 20 min), initial 0.3", "result": 0.1, "unit": "cm^3"},
      {"measurement": "FINAL MEAN TUMOR VOLUME", "setting": "breast tumors; 20 ug/cm^3 intratumor, no light, initial 0.2", "result": 0.7, "unit": "cm^3"},
      {"measurement": "COMPLETE RESPONSE (ANIMALS)", "setting": "breast tumors; 20 ug/cm^3 plus light", "result": "7/10"},
      {"measurement": "FINAL TOTAL TUMOR NO.", "setting": "breast tumors; 20 ug/cm^3 plus light, initial 14", "result": 3},
      {"measurement": "tumor necrosis", "setting": "breast tumors; injected and irradiated", "result": "Tumor necrosis was observed"},
      {"measurement": "tumor remission", "setting": "breast tumors; injected and irradiated", "result": "50-100%"},
      {"measurement": "necrosis or remission", "setting": "breast tumors; injected, not irradiated", "result": "no necrosis or remission"},
      {"measurement": "Life", "setting": "[1]", "result": "very long"}
    ]}
  ]
}
